These results are taken from ChEMBL document CHEMBL1201862, “PubChem BioAssay data set” (2004).

Some test systems named below: SW-620; NCI-H522; UACC-257; U-251; UO-31; HL-60; SF-539; OVCAR-5; HT-29; KM12; HCT-15; NCI-H226; OVCAR-4; A549; RXF 393; SK-MEL-2; MDA-MB-231; IGROV-1; EKVX; MDA-N.
What all share (test): NCI tumour cell line growth inhibition, 48 h

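Tested at 5 concentrations; 48 h exposure; 96-well plates; endpoints linearly interpolated, else capped at highest concentration. GI50: concentration for 50% inhibition of growth.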 Activity calls are given as the source filed them. No stated cut-off is given here; in the data, active = GI50 up to about 1.1 µM and inactive = higher.

On to `CC(N/N=C(\S)N1CCN(c2ccccn2)CC1)c1nccc2ccccc12` (centres undefined), for which the GI50 in the assay on SW-620 is 0.316 µM (active); with NCI-H522, 0.0782 µM (active); in the assay on UACC-257 it was 0.0318 µM (active); in the assay with U-251, 0.385 µM (active); with UO-31, 1.06 µM (active); with HL-60, < 0.01 µM (active). Also, the GI50 in the assay with SF-539 was 0.646 µM (active); in the assay on OVCAR-5, 0.453 µM (active); in the assay on HT-29 it was < 0.01 µM (active); in the assay on KM12 it was 3.16 µM (inactive); in the assay on HCT-15, 0.641 µM; in the assay on NCI-H226, 1.83 µM (inactive). For the same compound, the GI50 is 0.678 µM (active) in the assay on OVCAR-4, 1.65 µM (inactive) in the assay with A549, 0.908 µM (active) in the assay on RXF 393 and 4.23 µM (inactive) in the assay on SK-MEL-2.
Regarding `COC(=O)Cc1ccc(Oc2nc3ccccc3nc2-c2cccs2)cc1`, the GI50 in the assay with SW-620 was > 100 µM (inactive); in the assay with NCI-H522, > 100 µM (inactive); in the assay on UACC-257, > 100 µM (inactive); in the assay on MDA-MB-231 it was 27.2 µM (inactive); in the assay on IGROV-1 it was > 100 µM (inactive); in the assay on U-251, 39.1 µM (inactive). For the same compound, the GI50 is > 100 µM (inactive) in the assay on EKVX; > 100 µM (inactive) with UO-31; > 100 µM (inactive) in the assay with HL-60; 52 µM (inactive) with SF-539; > 100 µM (inactive) with OVCAR-5; > 100 µM (inactive) in the assay on HT-29. In addition, the GI50 with KM12 was > 100 µM (inactive); with HCT-15, over 100 µM; in the assay with NCI-H226, 35.7 µM (inactive); with OVCAR-4, > 100 µM (inactive); in the assay with A549, > 100 µM (inactive); in the assay on RXF 393, 19.1 µM (inactive). Further, in the assay with SK-MEL-2, the GI50 is 53.5 µM (inactive).
With `O=c1c2ccccc2nc(-c2ccccc2)n1NC(=S)Nc1ccc(Cl)cc1`, the GI50 in the assay on SW-620 was > 100 µM (inactive); in the assay on NCI-H522 it was 34.7 µM (inactive); in the assay on UACC-257 it was 75.9 µM (inactive); in the assay with IGROV-1 it was > 100 µM (inactive); in the assay with U-251 it was > 100 µM (inactive); in the assay on UO-31 it was 61.5 µM (inactive). For the same compound, the GI50 in the assay with HL-60 was 56.9 µM (inactive); in the assay with SF-539 it was > 100 µM (inactive); with OVCAR-5, > 100 µM (inactive); with HT-29, 53.8 µM (inactive); with KM12 it was 85.9 µM (inactive); with HCT-15, over 100 µM. The GI50 with NCI-H226 is 96.6 µM (inactive); with OVCAR-4, 74.3 µM (inactive); with A549, 59.7 µM (inactive); with RXF 393 it was 41.9 µM (inactive); in the assay with SK-MEL-2, > 100 µM (inactive).
With `COC(=O)c1ccc(-c2nc(C#N)c(N)o2)cc1`, the GI50 in the assay on SW-620 is > 100 µM (inactive); in the assay on NCI-H522, 39.4 µM (inactive); in the assay on UACC-257 it was > 100 µM (inactive); in the assay with MDA-MB-231, 27.1 µM (inactive); in the assay on IGROV-1 it was 99.8 µM (inactive); in the assay with U-251, 31.6 µM (inactive). For the same compound, the GI50 with EKVX, in the assay on UO-31, in the assay on SF-539, in the assay with OVCAR-5, in the assay with HT-29 and in the assay on KM12 was > 100 µM (inactive) each time. The GI50 with HCT-15 was over 100 µM; with NCI-H226, > 100 µM (inactive); in the assay on OVCAR-4 it was > 100 µM (inactive); in the assay on A549 it was > 100 µM (inactive); in the assay on RXF 393, > 100 µM (inactive); in the assay with SK-MEL-2, > 100 µM (inactive).
Consider `O=c1[nH]c2ccc(C(F)(F)F)cc2nc1Cc1ccccc1`, for which the GI50 with SW-620 was 39.4 µM (inactive); in the assay on UACC-257 it was 67.1 µM (inactive); in the assay with MDA-MB-231 it was 37.8 µM (inactive); in the assay with IGROV-1, 23.4 µM (inactive); in the assay with U-251, 45.7 µM (inactive); in the assay with EKVX it was 25.8 µM (inactive). Further, the GI50 in the assay with UO-31 is 37.3 µM (inactive); in the assay on HL-60, 34.8 µM (inactive); in the assay on SF-539, 31.3 µM (inactive); in the assay on HT-29, 25.4 µM (inactive); in the assay with KM12, 31.6 µM (inactive); in the assay on HCT-15 it was 36.1 µM. Besides, the GI50 was 17.7 µM (inactive) in the assay on NCI-H226, 33.4 µM (inactive) in the assay with OVCAR-4, 27.2 µM (inactive) in the assay on RXF 393 and 24.7 µM (inactive) in the assay on SK-MEL-2.
Take `COc1ccc(C2CC(c3cc(C)ccc3O)=NC(N)=N2)cc1` (centres undefined): the GI50 with SW-620, in the assay on NCI-H522, with UACC-257, in the assay on IGROV-1, in the assay on U-251 and with EKVX was > 100 µM (inactive) each time. The GI50 with UO-31, with HL-60, with SF-539, in the assay on OVCAR-5, in the assay with HT-29 and in the assay with KM12 was > 100 µM (inactive) each time. The GI50 with HCT-15 is over 100 µM; in the assay with NCI-H226, > 100 µM (inactive); in the assay with OVCAR-4 it was > 100 µM (inactive); in the assay with A549 it was > 100 µM (inactive); in the assay with RXF 393 it was > 100 µM (inactive).
On to `N#C/C(=C/c1cccnc1)C(=O)c1ccccc1`, for which the GI50 with SW-620, with NCI-H522, in the assay with UACC-257, in the assay with U-251, in the assay with EKVX and with UO-31 was > 100 µM (inactive) throughout. Also, the GI50 with HL-60 is > 100 µM (inactive); with SF-539 it was > 100 µM (inactive); in the assay with OVCAR-5, > 100 µM (inactive); in the assay with HT-29, > 100 µM (inactive); with KM12 it was > 100 µM (inactive); in the assay with HCT-15, over 100 µM. For the same compound, the GI50 with NCI-H226, in the assay on OVCAR-4, in the assay with A549, with RXF 393 and in the assay on SK-MEL-2 was > 100 µM (inactive) throughout.
With `N#CCCC1(CCC#N)CCCCCCCCC(CCC#N)(CCC#N)C(O)C1O` (centres undefined), the GI50 in the assay with SW-620 is > 100 µM (inactive); with NCI-H522, 30.3 µM (inactive); in the assay with UACC-257, > 100 µM (inactive); in the assay on IGROV-1 it was > 100 µM (inactive); in the assay on U-251, 46.7 µM (inactive); in the assay with EKVX, > 100 µM (inactive). In addition, the GI50 in the assay on SF-539 was 29.8 µM (inactive); with OVCAR-5, > 100 µM (inactive); with MDA-N, > 100 µM (inactive); in the assay with HT-29, > 100 µM (inactive); in the assay on KM12, > 100 µM (inactive); in the assay with HCT-15 it was over 100 µM. The GI50 with NCI-H226 is > 100 µM (inactive); in the assay with OVCAR-4, > 100 µM (inactive); in the assay on A549, 73.6 µM (inactive); with RXF 393 it was 31.9 µM (inactive); in the assay on SK-MEL-2, > 100 µM (inactive).
Regarding `O=[N+]([O-])c1ccc(OCc2nnc(CCCCCCCCc3nnc(COc4ccc([N+](=O)[O-])cc4)o3)o2)cc1`, the GI50 in the assay with SW-620 was > 100 µM (inactive); in the assay with NCI-H522 it was > 100 µM (inactive); in the assay with UACC-257, > 100 µM (inactive); in the assay with MDA-MB-231, 32.7 µM (inactive); in the assay on IGROV-1, > 100 µM (inactive); in the assay with U-251, 95.9 µM (inactive). Moreover, the GI50 was > 100 µM (inactive) in the assay with EKVX; > 100 µM (inactive) with UO-31; > 100 µM (inactive) with OVCAR-5; > 100 µM (inactive) with HT-29; 55.3 µM (inactive) with KM12; over 100 µM in the assay with HCT-15. The GI50 is > 100 µM (inactive) in the assay on NCI-H226; > 100 µM (inactive) in the assay with OVCAR-4; > 100 µM (inactive) in the assay with A549; 25.1 µM (inactive) with RXF 393; > 100 µM (inactive) in the assay with SK-MEL-2.
As for `CCOC(=O)/C(=C\c1ccc(N(CCC#N)CCC#N)cc1)NC(=O)c1cc([N+](=O)[O-])ccc1Cl`, the GI50 is > 100 µM (inactive) with SW-620; 56.1 µM (inactive) with NCI-H522; > 100 µM (inactive) in the assay on UACC-257; > 100 µM (inactive) with IGROV-1; > 100 µM (inactive) with U-251; > 100 µM (inactive) in the assay with EKVX. For the same compound, the GI50 in the assay on UO-31 was 69 µM (inactive); in the assay on HL-60, > 100 µM (inactive); in the assay on SF-539, > 100 µM (inactive); in the assay with OVCAR-5, > 100 µM (inactive); in the assay with HT-29 it was > 100 µM (inactive); in the assay with KM12, > 100 µM (inactive). For the same compound, the GI50 with HCT-15 was over 100 µM; in the assay on NCI-H226 it was > 100 µM (inactive); with OVCAR-4, > 100 µM (inactive); in the assay on A549 it was > 100 µM (inactive); in the assay on RXF 393, > 100 µM (inactive); in the assay on SK-MEL-2, > 100 µM (inactive).
`O=C1C(Cl)=C(Nc2ccc(S(=O)(=O)O)cc2)C(=O)c2ccccc21`: the GI50 in the assay on SW-620 was 22 µM (inactive); in the assay on NCI-H522, 18.2 µM (inactive); in the assay with UACC-257, 40 µM (inactive); in the assay on MDA-MB-231 it was 60.7 µM (inactive); in the assay with IGROV-1, 20 µM (inactive); in the assay on U-251, 36.8 µM (inactive). The GI50 in the assay on EKVX is 15.7 µM (inactive); in the assay with UO-31, 15 µM (inactive); in the assay on HL-60, 26.9 µM (inactive); in the assay on SF-539 it was 19.9 µM (inactive); with OVCAR-5, > 100 µM (inactive); in the assay with HT-29, > 100 µM (inactive). Moreover, the GI50 was 22 µM (inactive) in the assay with KM12; 35.2 µM in the assay on HCT-15; 34.4 µM (inactive) in the assay with NCI-H226; 38.5 µM (inactive) in the assay on OVCAR-4; 21.9 µM (inactive) in the assay on A549; 19.7 µM (inactive) with RXF 393. Also, the GI50 in the assay with SK-MEL-2 is 23.7 µM (inactive).
`COc1cc(/C=C/c2ccc(OC)c(OC)c2OC)cc(OC)c1OC`: the GI50 was 29.3 µM (inactive) in the assay with SW-620; 15.3 µM (inactive) in the assay with NCI-H522; 20.9 µM (inactive) in the assay with UACC-257; 28.2 µM (inactive) with IGROV-1; 16.8 µM (inactive) with U-251; 21.5 µM (inactive) in the assay with EKVX. The GI50 with UO-31 was 14.1 µM (inactive); in the assay on HL-60, 23.1 µM (inactive); with SF-539 it was 18.5 µM (inactive); with OVCAR-5, 15.8 µM (inactive); in the assay with HT-29, 20.8 µM (inactive); in the assay on KM12, 22 µM (inactive). For the same compound, the GI50 in the assay on HCT-15 is 18.5 µM; in the assay with NCI-H226 it was 17.6 µM (inactive); in the assay with OVCAR-4 it was 25.4 µM (inactive); with A549, 27.2 µM (inactive); in the assay on RXF 393 it was 22 µM (inactive); in the assay on SK-MEL-2 it was 16.9 µM (inactive).
